“And” between values parts separate entries of the source, which are not always exact repeats. Equal entries are not always repeated. Where two headings read alike, the source gives them in different places.
Legend:
human sclera = test: Thermal shrinkage temperature analysis of human scleral strips; settings: pH 7.4, 37° C., 96 hrs
Text: Thermal shrinkage temperature or denaturation temperature (Ts) is a technique that has been used for decades in studying collagen cross-linking. As collagen fibers are progressively heated, a threshold temperature is reached at which point disruption of hydrogen bonding in the collagen molecule triple helix occurs, resulting in unwinding of the triple helices. The denaturation of tertiary protein structure results in a rapid shrinkage of the tissue of up to 80%. This phenomenon can be expressed in various ways including temperature of onset of tissue shrinkage, temperature at maximal tissue shrinkage, and temperature at 50% of maximal tissue shrinkage, for example. In addition, differential scanning calorimetry (DSC) is related to thermal shrinkage temperature analysis and is widely used to evaluate biomaterial cross-linking. Thermal shrinkage temperature is essentially a simplified version of DSC and can be used effectively to screen the cross-linking efficacy of compounds. For the purposes of this study, the onset of shrinkage is considered the Ts and the temperature at which 50% of maximal shrinkage has occurred is T50. Graphs depicting the relationship between degree of shrinkage and temperature indicate differences in degree of cross-linking between groups. Thus, stabilization of collagen fiber structures through non-enzymatic cross-linking increases Ts and T50. A 5° C. upward shift in Ts for the anterior corneal stroma has been shown for the UVR cross-linking method (Spoerl, E., et al., 2004).
A semi-automated system has been developed which increases the efficiency and accuracy of Ts data collection. This system can perform multiple Ts assays in succession, allowing rapid screening of a number of potential cross-linking agents and conditions. […] Inlet and outlet fittings allow for constant circulation of heated water which is modulated by a digitally controlled water bath equipped with a water pump. The entire box is placed on a digital photo scanner connected to a Windows based computer. Beginning at 50° C. the temperature is raised at a rate of 1° C./min and serial scans are taken at every degree increase in temperature up to 80° C. Control pig corneas shrink at approximately 63° C. and cross-linked tissue at higher temperatures. As the tissue shrinks, the images are captured by the scanner. The image files are later analyzed for 2-dimensional area using NIH Image J software and % shrinkage calculations are made using Microsoft Excel for graphing purposes. This method obviates the need for removal of tissue pieces from the water bath with manual micrometer measurements as described by the UVR group (Spoerl, E., et al., 2004). Thus, the labor involved in acquiring data is lessened and the accuracy using image analysis is improved.
Shrinkage temperature (Ts) of porcine cornea (FIG. 16) and porcine and human sclera (FIGS. 17 and 18) cross-linked with 2-nitroethanol. […] Following reaction, thermal shrinkage temperature analysis was performed (Table 4). Several compounds were studied including NaNO2, 2-nitroethanol, 2-nitro-1-propanol, 3-nitro-2-pentanol, 2-nitrophenol, 2-nitroethane, 2-aminoethanol, isopentyl nitrite, DPTA/NO, DETA/NO, and urea, a nitrous acid trap.

ARPE-19 cells = test system: ARPE-19 cells
Text: A cytotoxicity study was undertaken to obtain an impression of the level of cellular tolerance to these compounds. For pilot experiments ARPE-19 cells were used. This is an immortal human retinal pigment epithelial cell line commonly used for experiments related to macular degeneration. In these pilot studies, the ARPE-19 cells serve as a surrogate for cytotoxicity experiments. Primary cultures of bovine corneal endothelial cells were also used in the cytotoxicity studies described. Bovine corneal cells have more direct relevance for evaluating potential cytotoxic effects during cross-linking of living eye tissue.
ARPE-19 cells were grown to 80% confluence in 96 well tissue culture plates. The cells were then exposed to varying concentrations of NaNO2 and 2-nitroethanol in their culture medium and evaluated for cell death using trypan blue (TB) staining (0.4% for 5 min) after 24 hrs.

porcine cornea = test: Light transmission of cross-linked corneo-scleral complexes; settings: 10 mM, 96 hrs incubation
Description: Following a 96 hrs incubation period at 10 mM, the corneo-scleral complexes were mounted between 2 pieces of quartz, previously determined to have no ultraviolet absorption. […] The sample was then mounted in a vertical, adjustable stage apparatus specifically designed to accommodate a PC 1000 Fibre Optic Spectrometer (Ocean Optics, Inc.). A xenon lamp was used as a light source and was connected to the upper half of the stage. The lower half was connected to a high sensitivity CCD mounted on a card which is installed in a PC computer. The CCD array detector captures a full wavelength spectrum (i.e. 200-1000 nm).
The absorption spectrum for each sample was recorded and exported into Microcal Origin 6.1 for processing. […] The scattering component was subtracted from the observed absorption spectrum by first fitting the scattering (non-absorption) portion of the spectrum (e.g. 700-800 nm) to the formula A=aλ^b, where A is the absorbance, λ is the wavelength, b is the order of the relationship between absorbance and wavelength, and a is a constant. The background signal due to scattering for all other wavelengths is then estimated using the coefficients determined from the fit. […] After scatter correction, the transmission spectrum for each absorption spectrum was calculated according to the Beer-Lambert law (T=10^−A×100%), where T is the transmission and A is the absorbance at each wavelength. […]

In the case of `O=[N+]([O-])CCO` [2-nitroethanol], the “T50 (temperature at 50% of maximal shrinkage)” value (human sclera; 1 mM) is reported as 66.3 °C, the “T50 Δ (change in 50% shrinkage temperature compared to control)” value (human sclera; 1 mM) is reported as 0.3 °C and the “Ti (temperature at 1% absolute shrinkage)” value (human sclera; 1 mM) is reported as 60.8 °C. For the same compound, the “T50 (temperature at 50% of maximal shrinkage)” value (human sclera; 10 mM) was 68.2 °C, the “T50 Δ (change in 50% shrinkage temperature compared to control)” value (human sclera; 10 mM) was 2.2 °C and the “Ti (temperature at 1% absolute shrinkage)” value (human sclera; 10 mM) was 64.4 °C. For the same compound, the “T50 (temperature at 50% of maximal shrinkage)” value (human sclera; 100 mM) was 73.5 °C, the “T50 Δ (change in 50% shrinkage temperature compared to control)” value (human sclera; 100 mM) was 7.5 °C and the “Ti (temperature at 1% absolute shrinkage)” value (human sclera; 100 mM) was 71.7 °C. The “trypan blue (TB) uptake” value (ARPE-19 cells; 1 mM, 24 hrs) was “no TB was taken up”, the “trypan blue (TB) uptake” value (ARPE-19 cells; 10 mM, 24 hrs) was “all of the cells took up TB” and the cytotoxic threshold (ARPE-19 cells; 24 hrs, trypan blue) was > 1 mM and 1 to 10 mM. The highest tolerated level (ARPE-19 cells; ARPE-19) was 1 mM, the tolerable level (ARPE-19 cells; ARPE-19) was 0.0091% and the “decrease in light transmission, 400-500 nm blue light region” value (porcine cornea) was 3.6%.

From patent publication US8466203B2, “Method of stabilizing human eye tissue by reaction with nitrite and related agents such as nitro compounds” (priority 2006, dated 2013)
